Assay results published in the supplement of paper PMC8617591.

Key:
[1] = tested on: Mycobacterium tuberculosis Erdman (autoluminescent); assay: total FIC50 (Loewe) at 50% inhibition, three-drug combination (log2); higher = more antagonistic
Description: (§1)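 DiaMOND equipotent three-drug combination dose responses (10 doses, 1.5- or 2-fold spacing, centred on IC90) against autoluminescent M. tuberculosis Erdman in 8 in vitro models. Read-out is OD600, or luminescence for the intracellular and dormancy models, normalised to untreated wells. Hill-fit Einf, AUC25 and GRinf are potency metrics; FIC50 and FIC90 are total Loewe fractional inhibitory concentrations as log2 (negative = synergy).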

[2] = tested on: Mycobacterium tuberculosis Erdman (autoluminescent); assay: GRinf, maximum normalised growth rate inhibition (three-drug combination) (unitless (-1 to 1)); higher = less effect (negative = killing)
Description: as §1

[3] = tested on: Mycobacterium tuberculosis Erdman (autoluminescent); assay: Einf, fitted maximum growth inhibition of three-drug combination (fraction); higher = stronger maximal inhibition
Description: as §1

[4] = tested on: Mycobacterium tuberculosis Erdman (autoluminescent); assay: total FIC90 (Loewe) at 90% inhibition, three-drug combination (log2); higher = more antagonistic
Description: as §1

[5] = tested on: Mycobacterium tuberculosis Erdman (autoluminescent); assay: AUC25, normalised area under dose response up to IC25 (three-drug combination) (fraction (0-1)); higher = more potent at low dose
Description: as §1

COc1nc2ccc(Br)cc2cc1[C@@H](c1ccccc1)[C@@](O)(CCN(C)C)c1cccc2ccccc12 [bedaquiline] + CC(=O)NC[C@H]1CN(c2ccc(N3CCOCC3)c(F)c2)C(=O)O1 [linezolid] + CO[C@H]1/C=C/O[C@@]2(C)Oc3c(C)c(O)c4c(O)c(c(/C=N/N5CCN(C)CC5)c(O)c4c3C2=O)NC(=O)/C(C)=C\C=C\[C@H](C)[C@H](O)[C@@H](C)[C@@H](O)[C@@H](C)[C@H](OC(C)=O)[C@@H]1C [rifampicin]
Settings	AUC25, [5]	Einf, [3]	GRinf, [2]	total FIC50, [1]	total FIC90, [4]
in vitro model: acidic pH 5.7, time point: constant (~7 days, model-specific)	0.0983	0.934	-0.257	0.731	–
in vitro model: acidic pH 5.7, time point: terminal (~4-5 doublings, model-specific)	0.0798	0.99	-0.249	0.737	0.559
in vitro model: intracellular J774, time point: constant = terminal	–	0.93	-0.121	–	-0.0392

Settings	AUC25, [5]	Einf, [3]	GRinf, [2]	total FIC50, [1]	total FIC90, [4]
in vitro model: butyrate, time point: constant (~7 days, model-specific)	0.0847	0.914	-0.0141	0.177	-0.362
in vitro model: butyrate, time point: terminal (~4-5 doublings, model-specific)	0.0706	0.955	-0.0153	0.082	-0.195
in vitro model: cholesterol 0.05 mM, time point: constant (~7 days, model-specific)	0.149	0.744	-0.202	-0.0465	–
in vitro model: cholesterol 0.05 mM, time point: terminal (~4-5 doublings, model-specific)	0.135	0.937	-0.321	4.18	-0.205
in vitro model: cholesterol-high 0.2 mM, time point: constant (~7 days, model-specific)	0.095	0.988	-0.655	0.47	0.612
in vitro model: cholesterol-high 0.2 mM, time point: terminal (~4-5 doublings, model-specific)	0.0921	1	-0.646	0.65	0.504
in vitro model: dormancy (butyrate + nitrate, low O2), time point: constant (~7 days, model-specific)	0.0823	0.941	0.177	0.618	0.781
in vitro model: dormancy (butyrate + nitrate, low O2), time point: terminal (~4-5 doublings, model-specific)	0.0706	0.982	-0.387	0.272	0.748
in vitro model: standard 7H9 glycerol, time point: constant = terminal	0.0714	0.938	-0.0288	0.312	-0.401
in vitro model: valerate, time point: constant (~7 days, model-specific)	0.0495	0.895	0.063	0.886	–
in vitro model: valerate, time point: terminal (~4-5 doublings, model-specific)	0.0389	0.953	-0.012	0.712	0.323

CC(C)/N=c1\cc2n(-c3ccc(Cl)cc3)c3ccccc3nc-2cc1Nc1ccc(Cl)cc1 [clofazimine] + CC(=O)NC[C@H]1CN(c2ccc(N3CCOCC3)c(F)c2)C(=O)O1 [linezolid] + CO[C@H]1/C=C/O[C@@]2(C)Oc3c(C)c(O)c4c(O)c(c(/C=N/N5CCN(C6CCCC6)CC5)c(O)c4c3C2=O)NC(=O)/C(C)=C\C=C\[C@H](C)[C@H](O)[C@@H](C)[C@@H](O)[C@@H](C)[C@H](OC(C)=O)[C@@H]1C [rifapentine]
Settings	AUC25, [5]	Einf, [3]	GRinf, [2]	total FIC50, [1]	total FIC90, [4]
in vitro model: acidic pH 5.7, time point: constant (~7 days, model-specific)	0.0854	0.874	-0.12	0.564	–
in vitro model: acidic pH 5.7, time point: terminal (~4-5 doublings, model-specific)	0.0814	0.98	-0.151	0.455	0.39
in vitro model: intracellular J774, time point: constant = terminal	–	0.926	-0.19	–	-0.239

Settings	AUC25, [5]	Einf, [3]	GRinf, [2]	total FIC50, [1]	total FIC90, [4]
in vitro model: butyrate, time point: constant (~7 days, model-specific)	0.0929	0.918	-0.00889	0.328	1.2
in vitro model: butyrate, time point: terminal (~4-5 doublings, model-specific)	0.0457	0.943	0.0319	0.369	-0.292
in vitro model: cholesterol 0.05 mM, time point: constant (~7 days, model-specific)	0.126	0.731	-0.0827	-0.42	–
in vitro model: cholesterol 0.05 mM, time point: terminal (~4-5 doublings, model-specific)	0.136	0.942	-0.212	0.236	0.563
in vitro model: cholesterol-high 0.2 mM, time point: constant (~7 days, model-specific)	0.114	0.928	-0.916	0.312	1.27
in vitro model: cholesterol-high 0.2 mM, time point: terminal (~4-5 doublings, model-specific)	0.124	1	-0.975	0.111	0.601
in vitro model: dormancy (butyrate + nitrate, low O2), time point: constant (~7 days, model-specific)	0.0702	0.914	0.025	1.42	1.23
in vitro model: dormancy (butyrate + nitrate, low O2), time point: terminal (~4-5 doublings, model-specific)	0.046	0.99	-0.23	1.03	0.905
in vitro model: standard 7H9 glycerol, time point: constant = terminal	0.105	0.945	0.00644	0.0429	0.805
in vitro model: valerate, time point: constant (~7 days, model-specific)	0.113	0.883	-0.112	0.974	–
in vitro model: valerate, time point: terminal (~4-5 doublings, model-specific)	0.0863	0.95	-0.00893	0.608	1.24

NNC(=O)c1ccncc1 [isoniazid] + CO[C@H]1/C=C/O[C@@]2(C)Oc3c(C)c(O)c4c(O)c(c(/C=N/N5CCN(C6CCCC6)CC5)c(O)c4c3C2=O)NC(=O)/C(C)=C\C=C\[C@H](C)[C@H](O)[C@@H](C)[C@@H](O)[C@@H](C)[C@H](OC(C)=O)[C@@H]1C [rifapentine] + CO[C@H]1/C=C/O[C@@]2(C)Oc3c(C)c(O)c4c(O)c(c(/C=N/N5CCN(C)CC5)c(O)c4c3C2=O)NC(=O)/C(C)=C\C=C\[C@H](C)[C@H](O)[C@@H](C)[C@@H](O)[C@@H](C)[C@H](OC(C)=O)[C@@H]1C [rifampicin]
Settings	AUC25, [5]	Einf, [3]	GRinf, [2]	total FIC50, [1]	total FIC90, [4]
in vitro model: acidic pH 5.7, time point: constant (~7 days, model-specific)	0.0821	0.87	-0.0825	0.753	–
in vitro model: acidic pH 5.7, time point: terminal (~4-5 doublings, model-specific)	0.0679	0.98	-0.129	0.528	0.407
in vitro model: intracellular J774, time point: constant = terminal	–	0.936	-0.1	–	0.217

Settings	AUC25, [5]	Einf, [3]	GRinf, [2]	total FIC50, [1]	total FIC90, [4]
in vitro model: butyrate, time point: constant (~7 days, model-specific)	0.104	0.922	0.00523	0.263	0.467
in vitro model: butyrate, time point: terminal (~4-5 doublings, model-specific)	0.0874	0.967	0.000636	0.203	0.338
in vitro model: cholesterol 0.05 mM, time point: constant (~7 days, model-specific)	0.112	0.62	0.0102	0.806	–
in vitro model: cholesterol 0.05 mM, time point: terminal (~4-5 doublings, model-specific)	0.0884	0.883	-0.129	0.447	-0.00675
in vitro model: cholesterol-high 0.2 mM, time point: constant (~7 days, model-specific)	0.068	0.913	-0.352	0.176	–
in vitro model: cholesterol-high 0.2 mM, time point: terminal (~4-5 doublings, model-specific)	0.055	0.998	-0.762	0.475	0.196
in vitro model: dormancy (butyrate + nitrate, low O2), time point: constant (~7 days, model-specific)	0.0473	0.859	0.242	-0.0392	-0.445
in vitro model: dormancy (butyrate + nitrate, low O2), time point: terminal (~4-5 doublings, model-specific)	0.0455	0.984	-0.157	-0.192	-0.199
in vitro model: standard 7H9 glycerol, time point: constant = terminal	0.0666	0.906	0.0924	0.523	–
in vitro model: valerate, time point: constant (~7 days, model-specific)	0.0385	0.881	-0.0115	0.498	–
in vitro model: valerate, time point: terminal (~4-5 doublings, model-specific)	0.0262	0.941	0.00295	0.354	0.159

CC(C)/N=c1\cc2n(-c3ccc(Cl)cc3)c3ccccc3nc-2cc1Nc1ccc(Cl)cc1 [clofazimine] + CC[C@@H](CO)NCCN[C@@H](CC)CO [ethambutol] + NC(=O)c1cnccn1 [pyrazinamide]
Settings	AUC25, [5]	Einf, [3]	GRinf, [2]	total FIC50, [1]	total FIC90, [4]
in vitro model: acidic pH 5.7, time point: constant (~7 days, model-specific)	0.112	0.725	-0.183	-0.812	–
in vitro model: acidic pH 5.7, time point: terminal (~4-5 doublings, model-specific)	0.0918	0.954	-0.232	0.156	-0.781
in vitro model: intracellular J774, time point: constant = terminal	–	1	-0.398	–	-0.408

Settings	AUC25, [5]	Einf, [3]	GRinf, [2]	total FIC50, [1]	total FIC90, [4]
in vitro model: butyrate, time point: constant (~7 days, model-specific)	0.1	0.913	-0.122	-0.0529	–
in vitro model: butyrate, time point: terminal (~4-5 doublings, model-specific)	0.075	0.953	-0.0327	0.0941	-0.127
in vitro model: cholesterol 0.05 mM, time point: constant (~7 days, model-specific)	0.147	0.758	-0.487	–	–
in vitro model: cholesterol 0.05 mM, time point: terminal (~4-5 doublings, model-specific)	0.123	0.86	-0.157	1.39	–
in vitro model: cholesterol-high 0.2 mM, time point: constant (~7 days, model-specific)	0.1	0.955	-0.718	0.509	–
in vitro model: cholesterol-high 0.2 mM, time point: terminal (~4-5 doublings, model-specific)	0.0851	0.998	-0.902	0.581	0.758
in vitro model: dormancy (butyrate + nitrate, low O2), time point: constant (~7 days, model-specific)	0.0979	0.826	0.349	-0.344	–
in vitro model: dormancy (butyrate + nitrate, low O2), time point: terminal (~4-5 doublings, model-specific)	0.124	0.999	-0.842	0.325	1.52
in vitro model: standard 7H9 glycerol, time point: constant = terminal	0.109	0.939	-0.163	0.315	–
in vitro model: valerate, time point: constant (~7 days, model-specific)	0.117	0.792	0.253	0.627	–
in vitro model: valerate, time point: terminal (~4-5 doublings, model-specific)	0.0625	0.898	0.205	0.395	–
